Data set [1] concerns C. parvum. Nature of the data set: Efficacy against C. parvum growth in vitro in HCT-8 cells, qRT-PCR assay. Particulars: for Safety Interval (TC50/EC50): HCT-8 TC50 / C. parvum EC50.
Data set [2] addresses T1, human (Homo sapiens) HK-I (HsHK1) (Homo sapiens, UniProt P19367).
T1 sequence (P19367 1-917): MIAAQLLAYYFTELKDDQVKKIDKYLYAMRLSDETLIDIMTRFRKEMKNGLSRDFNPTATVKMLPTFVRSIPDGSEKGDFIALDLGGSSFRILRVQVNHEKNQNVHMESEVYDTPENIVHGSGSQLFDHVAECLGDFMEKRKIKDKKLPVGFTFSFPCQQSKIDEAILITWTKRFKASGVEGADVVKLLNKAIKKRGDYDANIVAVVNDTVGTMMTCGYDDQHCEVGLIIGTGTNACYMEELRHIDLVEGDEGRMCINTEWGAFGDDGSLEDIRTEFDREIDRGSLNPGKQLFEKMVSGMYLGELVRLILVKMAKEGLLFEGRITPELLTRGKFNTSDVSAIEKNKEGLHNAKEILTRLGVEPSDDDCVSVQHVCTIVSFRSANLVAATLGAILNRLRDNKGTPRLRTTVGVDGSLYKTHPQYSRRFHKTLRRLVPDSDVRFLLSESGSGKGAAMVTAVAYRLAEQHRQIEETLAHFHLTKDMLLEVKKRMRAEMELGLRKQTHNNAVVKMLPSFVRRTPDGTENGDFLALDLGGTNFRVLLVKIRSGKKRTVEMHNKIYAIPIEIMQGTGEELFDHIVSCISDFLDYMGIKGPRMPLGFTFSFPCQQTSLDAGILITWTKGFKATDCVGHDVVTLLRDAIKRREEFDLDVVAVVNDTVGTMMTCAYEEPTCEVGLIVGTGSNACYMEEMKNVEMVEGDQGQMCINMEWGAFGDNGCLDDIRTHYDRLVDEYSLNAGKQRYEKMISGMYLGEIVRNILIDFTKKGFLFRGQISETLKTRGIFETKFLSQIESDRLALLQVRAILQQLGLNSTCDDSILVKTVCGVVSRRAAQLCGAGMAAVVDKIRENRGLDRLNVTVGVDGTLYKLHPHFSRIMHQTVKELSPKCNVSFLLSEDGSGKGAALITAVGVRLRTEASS
Put plainly: HsHK1 inhibition, HK/G6PDH-coupled assay. Type of data set: biochemical.

For data set [3], the target named is T2, C. parvum hexokinase (CpHK) (Cryptosporidium parvum, UniProt Q5CWT5). Put plainly: biochemical. Type of data set: biochemical. The settings on record: for Selectivity on enzyme: HsHK1 IC50 versus CpHK IC50; for Mode of inhibition of CpHK: inhibitory kinetics.
In data set [4] the test system is HCT-8 cells. Put plainly: Cytotoxicity on host cells, MTT assay. (In general: Tetrazolium dyes change colour on reduction, which living cells bring about.)
Another data set addresses T3, CpHK (Cryptosporidium parvum, UniProt Q5CWT5).
T3 sequence (Q5CWT5 1-518): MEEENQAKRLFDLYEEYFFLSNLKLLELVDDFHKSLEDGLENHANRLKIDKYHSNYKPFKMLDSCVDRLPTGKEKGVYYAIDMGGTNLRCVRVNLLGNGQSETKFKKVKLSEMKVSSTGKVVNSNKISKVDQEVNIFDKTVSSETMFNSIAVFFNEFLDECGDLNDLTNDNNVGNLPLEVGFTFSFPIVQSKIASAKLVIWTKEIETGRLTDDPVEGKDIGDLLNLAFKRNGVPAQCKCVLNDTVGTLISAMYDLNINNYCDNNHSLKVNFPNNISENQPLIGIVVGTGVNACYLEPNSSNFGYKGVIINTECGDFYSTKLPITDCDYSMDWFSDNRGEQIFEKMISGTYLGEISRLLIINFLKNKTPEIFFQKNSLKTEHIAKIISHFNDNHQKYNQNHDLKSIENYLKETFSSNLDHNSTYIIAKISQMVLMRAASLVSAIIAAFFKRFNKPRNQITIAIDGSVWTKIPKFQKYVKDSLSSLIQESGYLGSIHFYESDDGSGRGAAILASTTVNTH
Put plainly: CpHK enzyme parameters towards substrates. Type of data set: biochemical.

In a further data set the target is T4, HsHK1 (Homo sapiens, UniProt P19367).
T4 sequence (P19367 1-917): T1 sequence (P19367 1-917)
Nature of the data set: HsHK1 enzyme parameters towards substrates. Type of data set: biochemical.

Data set [5] deals with T2, C. parvum hexokinase (CpHK). The settings on record: ref Yu et al. 2014, cited from earlier work.
Data set [6] has as its system HCT-8 cells. The settings on record: host cells; ref Eltahan et al, 2018; cited from earlier work.
Data set [7] concerns C. parvum. Particulars: read-out: Efficacy on C. parvum (EC50); in vitro; ref Eltahan et al, 2018; cited from earlier work.
Substrate in data set [8]: O=CC[C@@H](O)[C@H](O)[C@H](O)CO
Nature of the data set: purified protein, by the assay type. Particulars: other: compound as substrate, 37 °C, pH 7.5.

Substrate in data set [9]: OC[C@H]1OC(O)[C@H](O)[C@@H](O)[C@@H]1O
Put plainly: HsHK1 enzyme parameters towards substrates. Type of data set: biochemical, Homo sapiens. The settings on record: other: compound as substrate, 37 °C, pH 7.5.

Substrate in data set [10]: OC[C@H]1OC(O)[C@H](O)[C@@H](O)[C@@H]1O
Put plainly: CpHK enzyme parameters towards substrates. In kind it is biochemical, Cryptosporidium parvum. Particulars: other: compound as substrate; pH 7.5.

Substrate in data set [11]: O=CC[C@@H](O)[C@H](O)[C@H](O)CO
Put plainly: CpHK enzyme parameters towards substrates. In kind it is biochemical, Cryptosporidium parvum. The settings on record: other: compound as substrate; pH 7.5.

Where [12] appears, read: Cryptosporidium parvum, HCT-8, read-out: Efficacy on C. parvum (EC50).
Where [13] appears, read: Cryptosporidium parvum, HCT-8, 44 h, read-out: In vitro efficacy (EC50).

Where a name gives a salt, the structure may show the parent alone. Read-outs that look alike come from different tables or passages of the source. Marks after values point to notes of the source that are not given here.

As a reminder, the EC50 is the concentration giving half of the maximal effect. For orientation: IC50 means the concentration that gives 50% inhibition. For the molecule `CCCCC(CC)CNC(=N)NC(=N)NCCCCCCNC(=N)NC(=N)NCC(CC)CCCC` (stereo not shown) [Alexidine•2HCl, alexidine dihydrochloride], the EC50 in the data set with C. parvum [1] (setting [12]) worked out at 8.1 µM. This molecule showed an IC50 in [2] of 22.7 µM. In data set [3], the IC50 turned out to be 22.1 µM, the Selectivity on enzyme is on record as 1.03 and the “Mode of inhibition of CpHK” value is “noncompetitive inhibitor”. In addition, the “Cytotoxicity (TC50)” value with HCT-8 cells [4] (host cells) was 32.6 µM.
In the case of `Oc1c(Cl)cc(Cl)c(Cl)c1Cc1c(O)c(Cl)cc(Cl)c1Cl` [Hexachlorophene], the EC50 in the data set with C. parvum [1] (setting [12]) is 0.53 µM. The same molecule had an IC50 in [2] of 6.5 µM. Besides, in [3], inhibition was half-maximal at 8.8 µM (IC50), the Selectivity on enzyme is on record as 0.74 and the “Mode of inhibition of CpHK” value is listed as “mixed model of inhibition”. For the same molecule, the “Cytotoxicity (TC50)” value in the data set on HCT-8 cells [4] (host cells) is 100 µM.
For the molecule `OC[C@H]1OC(O)[C@H](F)[C@@H](O)[C@@H]1O` (stereo partly shown) [FDG, fluorodeoxyglucose], the “Safety Interval (TC50/EC50)” value with C. parvum [1] was > 240; in the data set on C. parvum [1] (listed as 2FDG) it was >240. In the data set with C. parvum [1] (read-out: In vitro efficacy (EC50), 44 h infection assay), the half-maximal effective concentration (EC50) worked out at 300 µM. Also, the IC50 in data set [2] (read-out: Effect on HsHK1, IC50, 37 °C) is 15200 µM; in data set [3] (read-out: Effect on CpHK, IC50), 3700 µM.
As usually defined, the Ki is the dissociation constant of the complex between target and ligand, obtained from inhibition or displacement. Turning to `O=CC[C@@H](O)[C@H](O)[C@H](O)CO` [2DG, 2-deoxy-D-glucose], the EC50 with C. parvum [1] (setting [13]) came to 540 µM. In addition, the “Safety Interval (TC50/EC50)” value in the data set with C. parvum [1] was found to be 66.7. The 50% inhibitory concentration (IC50) is 10100 µM in data set [2], 5750 µM in data set [3] and 5.75 mM in data set [5] (read-out: CpHK IC50). On CpHK, the “Ratio (2DG/glucose) of CpHK Vmax” value was found to be 0.72. Further, the “Ratio (2DG/glucose) of CpHK Km” value at CpHK (fold lower affinity than for glucose) is 4.43. For the same molecule, the “Ratio (2DG/glucose) of HsHK1 Km” value on HsHK1 turned out to be 9.81. The “Ratio (2DG/glucose) of HsHK1 Vmax” value at HsHK1 turned out to be 1.28. Further, the “Cytotoxicity (TC50)” value in the data set on HCT-8 cells [4] (44 h treatment) is 36000 µM. For the same molecule, the inhibition constant Ki in data set [5] (read-out: CpHK Ki) was 340 µM. The “Mode of inhibition of CpHK” value in data set [5] is “competitive inhibitor”.
For `O=c1c2ccccc2[se]n1-c1ccccc1` [Ebselen, 2-phenyl-1,2-benzisoselenazol-3(2H)-one], the half-inhibitory concentration (IC50) in data set [2] was determined as 0.265 µM. In the data set on HCT-8 cells [6], the “Cytotoxicity (TC50)” value is 700 ^* μM. Further, the 50% effective concentration (EC50) in the data set with C. parvum [7] is 165 µM. Moreover, in [3], half-maximal inhibition (IC50) was put at 0.241 µM, the Selectivity on enzyme was determined as 1.10 and the “Mode of inhibition of CpHK” value is “noncompetitive inhibitor”. For the same molecule, in data set [3] (not reversed by up to 50-fold dilution, from 100 to 2 μM), the “Reversibility of CpHK inhibition” value was “irreversible inhibitor”.
In the case of `C[CH2][Hg][S]c1ccccc1C(=O)[O-].[Na+]` [Thimerosal], the EC50 with C. parvum [1] (read-out: Efficacy on C. parvum (EC50), in vitro) amounted to 1.77 µM. The IC50 came to 0.35 µM in [2] (read-out: Inhibition on HsHK1 (IC50), 37 °C, 1% DMSO) and 2.3 µM in data set [3] (read-out: Inhibition on CpHK (IC50), 37 °C, 1% DMSO). Also, in data set [3], the “Mode of inhibition of CpHK” value was “mixed model of inhibition”. Moreover, in the data set on HCT-8 cells [4] (host cells), the “Cytotoxicity (TC50)” value stood at 18.5 µM.
As for `O=CC[C@@H](O)[C@H](O)[C@H](O)COP(=O)(O)O` [2DG6P, 2-deoxy-D-glucose-6-phosphate], the concentration for a half-maximal effect (EC50) in the data set on C. parvum [1] (setting [13]) stood at 18000 µM. For the same molecule, the “Safety Interval (TC50/EC50)” value in the data set with C. parvum [1] was >4.0. Moreover, the “Cytotoxicity (TC50)” value with HCT-8 cells [4] (44 h treatment) was >72000 µM.

B1: HsHK1 (Homo sapiens) (protein)
chain: T1 sequence (P19367 1-917)
A word on the Km: it is the concentration of substrate that gives half-maximal velocity. A word on the Vmax: it is the rate approached at saturating substrate. For B1, the Km is 0.265 mM in data set [8] and 0.027 mM in [9]. Besides, the Vmax in [8] was determined as 68.4 µmol/min; in data set [9], 53.3 µmol/min.

B2: CpHK (Cryptosporidium parvum Iowa II) (protein)
chain: T3 sequence (Q5CWT5 1-518)
Consider B2, for which, in data set [10], the Michaelis constant (Km) worked out at 0.046 mM and the maximum rate (Vmax) came to 155 µmol/min. Besides, in data set [11], the Km worked out at 0.204 mM and the Vmax was found to be 112 µmol/min.
